Results reported in patent publication US12459951B2, “Compounds that interact with RAS superfamily proteins for treatment of cancers, inflammatory diseases, rasopathies, and fibrotic disease” (SHY Therapeutics, LLC, priority 2022, dated 2025).
Structures can show the parent of a compound that is named as a salt.

Columns and labels:
Rac-1 = molecular target: T1, Rac-1 (Homo sapiens, UniProt P63000); test: Ras GTP Binding Domain Inhibition Assay (Ras Superfamily Assay); conditions: read-out: Rac-1: % inh.
T1 construct: made in house
How it was run: (§1)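 Binding of 100 nM fluorescent GTP (Cy3 or Cy5, 45 min, room temperature) was read after washes from plate-captured His-tagged protein. Beforehand, compounds at 20 μM or in dilution series for IC50 sat 3 h on the protein in Tris buffer pH 7.4 or 7.0 with 1% DMSO, Sos GEF optionally added for the last hour.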

KRas wild type = test: as above; conditions: 20 μM compound; for KRas wild type + SOS: % inh.: with SOS; for KRas wild type: % inh.: without SOS
How it was run: as §1

KRas G12D mutant = test: as above; conditions: 20 μM compound; for KRas G12D mutant + SOS: % inh.: with SOS; for KRas G12D mutant: % inh.: without SOS
How it was run: as §1

IL6 = test: IL-6 Quantification Assay (ELISA), LPS-stimulated RAW 264.7; assay type: cell-based; set-up: inhibition: dose or concentration left out as unconfirmed; conditions: Mus musculus, RAW264.7; read-out: IL-6: % inh.
TNF-alpha = TNF-alpha Quantification Assay (ELISA), LPS-stimulated RAW 264.7; assay type: cell-based; conditions: Mus musculus, RAW264.7; at 10 μM; read-out: TNFα: % inh.
Erk1/2 phosphorylation = test: Erk1/2 Phosphorylation Assay (western blot), Panc-1; assay type: cell-based, human; conditions: at 10 μM, * = activation
How it was run: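 Phospho-Erk1/2 (Thr202/Tyr204) was detected by western blot in lysates of Panc-1 cells (KRas G12D). These had 6 h, 37° C exposure to 10 μM compound or a dilution series for IC50, in 0.3% DMSO. Cells were either starved overnight in 0.5% FBS with a 15-min 1.5 ng/ml EGF pulse, or kept unstimulated in 10% FBS.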

| inhibition at 20 µM (Rac-1) [%] | KRas wild type + SOS: % inh. (KRas wild type) | KRas wild type: % inh. (KRas wild type) | KRas G12D mutant + SOS: % inh. (KRas G12D mutant) | KRas G12D mutant: % inh. (KRas G12D mutant) | SMILES | inhibition (IL6) [%] | inhibition at 10 µM (TNF-alpha) [%] | % inh of Erk1/2 phosphorylation in Panc-1 (Erk1/2 phosphorylation) |
| --- | --- | --- | --- | --- | --- | --- | --- | --- |
| 1 to 25 | 0 (0 = 0% inhibition) | 0 (0 = 0% inhibition) | A (A = 1-25% inhibition) | A (A = 1-25% inhibition) | COCCO[C@H]1C[C@H](Nc2nc(-c3nccn3C)nn3cc(-c4ccn(C(C)C)n4)c(C)c23)C1 [Compound 92, 6-(1-Isopropyl-1H-pyrazol-3-yl)-N-((1r,3r)-3-(2-methoxyethoxy)cyclobutyl)-5-methyl-2-(1-methyl-1H-imidazol-2-yl)pyrrolo[2,1-f][1,2,4]triazin-4-amine] | 50 to 74 | 1 to 24 | A* (1-25% activation) |
| 1 to 25 | A (A = 1-25% inhibition) | A (A = 1-25% inhibition) | 0 (0 = 0% inhibition) | A (A = 1-25% inhibition) | COC1CCCN(c2nc(-c3nccn3C)nn3cc(-c4ccn(C(C)C)n4)c(C)c23)C1 (racemic) [Compound 4, rac 6-(1-Isopropyl-1H-pyrazol-3-yl)-5-methyl-2-(1-methyl-1H-imidazol-2-yl)-4-(3-(oxo-γ6-methyl)piperidin-1-yl)pyrrolo[2,1-f][1,2,4]triazine] | 75 to 100 | 75 to 100 | D (85-100% inhibition) |
| 26 to 49 | A (A = 1-25% inhibition) | A (A = 1-25% inhibition) | A (A = 1-25% inhibition) | B (B = 26-49% inhibition) | Cc1c(-c2ccn(C(C)C)n2)cn2nc(-c3nccn3C)nc(Nc3noc(C4CC4)n3)c12 [Compound 75, 5-Cyclopropyl-N-(6-(1-isopropyl-1H-pyrazol-3-yl)-5-methyl-2-(1-methyl-1H-imidazol-2-yl)pyrrolo[2,1-f][1,2,4]triazin-4-yl)-1,2,4-oxadiazol-3-amine] | 1 to 24 | 1 to 24 | B (26-49% inhibition) |

Continued, compound first:

| SMILES | inhibition at 20 µM (Rac-1) [%] | KRas wild type + SOS: % inh. (KRas wild type) | KRas wild type: % inh. (KRas wild type) | KRas G12D mutant + SOS: % inh. (KRas G12D mutant) | KRas G12D mutant: % inh. (KRas G12D mutant) | inhibition (IL6) [%] | inhibition at 10 µM (TNF-alpha) [%] | % inh of Erk1/2 phosphorylation in Panc-1 (Erk1/2 phosphorylation) |
| --- | --- | --- | --- | --- | --- | --- | --- | --- |
| CO[C@H]1CC[C@@H](Nc2nc(-c3nccn3C)nn3cc(-c4ccn(C(C)C)n4)c(-c4ccccc4)c23)C1 (racemic) [Compound 18, rac 6-(1-Isopropyl-1H-pyrazol-3-yl)-N-((1R,3S)-3-methoxycyclopentyl)-2-(1-methyl-1H-imidazol-2-yl)-5-phenylpyrrolo[2,1-f][1,2,4]triazin-4-amine hydrochloride] | 0 | A (A = 1-25% inhibition) | B (B = 26-49% inhibition) | 0 (0 = 0% inhibition) | A (A = 1-25% inhibition) | 25 to 49 | 1 to 24 | C (50-84% inhibition) |
| CC(C)n1ccc(-c2cn3nc(-c4nccn4C)nc(O)c3c2-c2ccccc2)n1 [Compound 17, 6-(1-Isopropyl-1H-pyrazol-3-yl)-2-(1-methyl-1H-imidazol-2-yl)-5-phenylpyrrolo[2,1-f][1,2,4]triazin-4-ol] | 50 to 75 | C (C = 50-75% inhibition) | C (C = 50-75% inhibition) | C (C = 50-75% inhibition) | C (C = 50-75% inhibition) | 50 to 74 | 25 to 49 | A (1-25% inhibition) |
| CCc1nc(Nc2nc(-c3nccn3C)nn3cc(-c4ccn(C(C)C)n4)c(C)c23)nn1C [Compound 76, N-(5-Ethyl-1-methyl-1H-1,2,4-triazol-3-yl)-6-(1-isopropyl-1H-pyrazol-3-yl)-5-methyl-2-(1-methyl-1H-imidazol-2-yl)pyrrolo[2,1-f][1,2,4]triazin-4-amine] | 50 to 75 | 0 (0 = 0% inhibition) | B (B = 26-49% inhibition) | 0 (0 = 0% inhibition) | C (C = 50-75% inhibition) | 25 to 49 | 25 to 49 | 0 (0% inhibition) |
| Cc1c(-c2ccn(C(C)C)n2)cn2nc(-c3nccn3C)nc(Nc3cc4n(n3)CCO4)c12 [Compound 91, N-(6-(1-Isopropyl-1H-pyrazol-3-yl)-5-methyl-2-(1-methyl-1H-imidazol-2-yl)pyrrolo[2,1-f][1,2,4]triazin-4-yl)-2,3-dihydropyrazolo[5,1-b]oxazol-6-amine] | 76 to 100 | C (C = 50-75% inhibition) | D (D = 76-100% inhibition) | D (D = 76-100% inhibition) | D (D = 76-100% inhibition) | 1 to 24 | 1 to 24 | D* (85-100% activation) |
| COc1nccc(Nc2nc(-c3nccn3C)nn3cc(-c4ccn(C(C)C)n4)c(C)c23)n1 [Compound 86, 6-(1-Isopropyl-1H-pyrazol-3-yl)-N-(2-methoxypyrimidin-4-yl)-5-methyl-2-(1-methyl-1H-imidazol-2-yl)pyrrolo[2,1-f][1,2,4]triazin-4-amine] | 50 to 75 | 0 (0 = 0% inhibition) | B (B = 26-49% inhibition) | C (C = 50-75% inhibition) | A (A = 1-25% inhibition) | 75 to 100 | 1 to 24 | D* (85-100% activation) |
| COCc1csc(Nc2nc(-c3nccn3C)nn3cc(-c4ccn(C(C)C)n4)c(C)c23)n1 [Compound 79, N-(6-(1-Isopropyl-1H-pyrazol-3-yl)-5-methyl-2-(1-methyl-1H-imidazol-2-yl)pyrrolo[2,1-f][1,2,4]triazin-4-yl)-4-(methoxymethyl)thiazol-2-amine] | 76 to 100 | B (B = 26-49% inhibition) | C (C = 50-75% inhibition) | C (C = 50-75% inhibition) | D (D = 76-100% inhibition) | 1 to 24 | 25 to 49 | D* (85-100% activation) |
